Laboratory results from patent publication US8846951B2 (AbbVie Inc., priority 2009, dated 2014).
Like-named read-outs stand apart in the source and are kept apart here.

Legend:
5HT2B receptors = biological target: T1, 5HT2B receptors (Homo sapiens, UniProt P41595); test: Human 5-HT2B functional high throughput screening assay in CHO-K1 cells (calcium flux); type: cell-based; conditions: for EC50: CHO-K1 cells, calcium flux
T1 construct: expressed in transfected cells; host or cells: CHO-K1 cells
Method in brief: (§1)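 Frozen CHO-K1 cells overexpressing the receptor were plated, serum-starved overnight, then loaded with Ca4 dye plus 2.5 mM probenecid for 60 min at room temperature. FLIPR fluorescence (ex 480/em 530 nm, 25 °C) after compound addition was normalized to serotonin; EC50 and Emax came from 4-parameter logistic fits.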

5HT2C receptors = biological target: T2, 5HT2C receptors (Homo sapiens, UniProt P28335); test: Human 5-HT2C functional high throughput screening assay in CHO-K1 cells (calcium flux); type: cell-based; set-up: expressed in transfected cells; host or cells: CHO-K1 cells; conditions: for Emax: CHO-K1, 5-HT2C, maximum functional response as percentage relative to the effect of serotonin; for EC50: CHO-K1 cells, calcium flux
T2 sequence (P28335 33-458): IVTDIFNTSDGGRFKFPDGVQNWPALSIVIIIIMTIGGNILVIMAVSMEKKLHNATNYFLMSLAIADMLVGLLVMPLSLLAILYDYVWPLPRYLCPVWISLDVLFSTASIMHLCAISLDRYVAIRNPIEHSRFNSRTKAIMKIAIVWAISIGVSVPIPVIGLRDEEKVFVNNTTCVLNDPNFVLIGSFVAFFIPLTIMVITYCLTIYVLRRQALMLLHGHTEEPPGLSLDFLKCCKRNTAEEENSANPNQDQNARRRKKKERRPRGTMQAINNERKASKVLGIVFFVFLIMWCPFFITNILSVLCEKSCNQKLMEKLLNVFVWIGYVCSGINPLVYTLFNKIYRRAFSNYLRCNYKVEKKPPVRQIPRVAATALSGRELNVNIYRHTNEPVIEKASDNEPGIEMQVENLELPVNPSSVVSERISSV
Method in brief: as §1

[1] = 5-HT2B agonist activity, read-out: EC50
[2] = CHO-K1, 5-HT2B, maximum functional response as percentage relative to the effect of serotonin, read-out: Emax
[3] = 5-HT2C agonist activity, read-out: EC50
[4] = 5-HT2B, maximum functional response as percentage relative to the effect of serotonin

T1 sequence (P41595 whole entry): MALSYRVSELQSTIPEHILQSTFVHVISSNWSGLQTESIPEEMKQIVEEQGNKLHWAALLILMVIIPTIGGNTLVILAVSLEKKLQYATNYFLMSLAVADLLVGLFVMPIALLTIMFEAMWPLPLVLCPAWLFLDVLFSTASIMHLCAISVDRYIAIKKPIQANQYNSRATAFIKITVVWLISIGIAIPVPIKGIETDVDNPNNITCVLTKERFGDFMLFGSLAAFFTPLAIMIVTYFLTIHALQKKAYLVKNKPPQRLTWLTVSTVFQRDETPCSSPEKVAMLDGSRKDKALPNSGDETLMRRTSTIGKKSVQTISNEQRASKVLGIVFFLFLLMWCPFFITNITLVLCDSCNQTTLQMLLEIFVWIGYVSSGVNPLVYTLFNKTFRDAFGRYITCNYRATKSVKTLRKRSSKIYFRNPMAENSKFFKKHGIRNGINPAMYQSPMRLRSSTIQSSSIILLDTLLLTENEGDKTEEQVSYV

| Structure (SMILES) | Emax (5HT2B receptors; CHO-K1) [%] | EC50 (5HT2B receptors; EC50, 5-HT2B agonist activity) [nM] | Emax (5HT2C receptors) [%] | EC50 (5HT2C receptors; EC50, 5-HT2C agonist activity) [nM] | EC50 (5HT2B receptors; [1]) [nM] | Emax (5HT2B receptors; [2]) [%] | EC50 (5HT2C receptors; [3]) [nM] | Emax (5HT2C receptors; read-out: Emax) [%] | Emax (5HT2B receptors; [4]) |
| --- | --- | --- | --- | --- | --- | --- | --- | --- | --- |
| CN1C[C@@H]2CCCc3ccccc3[C@@H]2C1 (relative stereo) [Example 269, Cis-2-methyl-1,2,3,3a,4,5,6,10b-octahydrobenzo[3,4]cyclohepta[1,2-c]pyrrole] | 50 | 800 | > 120 | 100 |  |  |  |  |  |
| COc1ccc(OC)c(S(=O)(=O)N2Cc3cccnc3[C@@H]3CNC[C@H]3C2)c1 (relative stereo) [Example 343, Trans-6-[(2,5-dimethoxyphenyl)sulfonyl]-5,6,7,7a,8,9,10,10a-octahydropyrido[3,2-c]pyrrolo[3,4-e]azepine] |  |  |  |  | 1000 | 60 | 300 | 85 |  |
| COc1ccc(-c2ccc3c(c2)C(=O)NC[C@H]2CN(C)C[C@H]32)c(F)c1 [Example 325, (3aS,10bS)-8-(2-Fluoro-4-methoxyphenyl)-2-methyl-2,3,3a,4,5,10b-hexahydropyrrolo[3,4-d][2]benzazepin-6(1H)-one] |  |  |  |  | > 10000 |  | 2 | 90 | inactive |
| O=C1NC[C@@H]2CNC[C@H]2c2ccc(-c3ccc(F)cc3)cc21 (relative stereo) [Example 219, Trans-8-(4-fluorophenyl)-1,2,3,3a,4,5-hexahydrobenzo[e]pyrrolo[3,4-c]azepin-6(10bH)-one] |  |  |  |  | > 10000 |  |  | > 120 | inactive |
| CS(=O)(=O)c1ccccc1-c1ccc2c(c1)C(=O)NC[C@@H]1CNC[C@@H]21 (relative stereo) [Example 231, Trans-8-(2-(methylsulfonyl)phenyl)-1,2,3,3a,4,5-hexahydrobenzo[c]pyrrolo[3,4-e]azepin-6(10bH)-one] |  |  |  |  | > 10000 |  | 900 | 105 | inactive |
| COc1ccc2c(c1)C(=O)N(C)C[C@@H]1CNC[C@@H]21 (relative stereo) [Example 188, Trans-8-methoxy-5-methyl-1,2,3,3a,4,5-hexahydrobenzo[e]pyrrolo[3,4-c]azepin-6(10bH)-one] | 90 | 1000 | > 120 | 60 |  |  |  |  |  |
| CN1C[C@@H]2CN(C)C(=O)c3cc(F)ccc3[C@H]2C1 [Example 163, (3aR,10bS)-8-Fluoro-2,5-dimethyl-1,2,3,3a,4,5-hexahydrobenzo[e]pyrrolo[3,4-c]azepin-6(10bH)-one] | 20 | 800 | > 120 | 60 |  |  |  |  |  |
| C[C@H](Cc1ccccc1)Oc1ccc2c(c1)C(=O)NC[C@H]1CNC[C@H]21 [Example 181, (3aR,10bS)-8-((R)-1-Phenylpropan-2-yloxy)-1,2,3,3a,4,5-hexahydrobenzo[e]pyrrolo[3,4-c]azepin-6(10bH)-one] |  |  |  |  | > 10000 |  | 10 | > 120 | inactive |
| O=C1NC[C@@H]2CNC[C@H]2c2cccnc21 (relative stereo) [Example 157, Trans-1,2,3,3a,4,5-hexahydropyrido[3,2-e]pyrrolo[3,4-c]azepin-6(10bH)-one] |  |  | 110 |  | > 10000 |  | 3000 |  | inactive |
| Cc1ccc(S(=O)(=O)N2Cc3cccnc3[C@@H]3CNC[C@H]3C2)cc1 (relative stereo) [Example 356, Trans-6-[(4-methylphenyl)sulfonyl]-5,6,7,7a,8,9,10,10a-octahydropyrido[3,2-c]pyrrolo[3,4-e]azepine] | 15 | 1000 | 90 | 40 |  |  |  |  |  |
| CN1C[C@H]2CNC(=O)c3c(OC(F)(F)F)cccc3[C@@H]2C1 (relative stereo) [Example 110, Trans-2-methyl-7-(trifluoromethoxy)-1,2,3,3a,4,5-hexahydrobenzo[c]pyrrolo[3,4-e]azepin-6(10bH)-one] | 15 | 900 | > 120 |  |  |  |  |  |  |
| O=S(=O)(c1cccc(F)c1)N1Cc2cccnc2[C@@H]2CNC[C@H]2C1 (relative stereo) [Example 337, Trans-6-[(3-fluorophenyl)sulfonyl]-5,6,7,7a,8,9,10,10a-octahydropyrido[3,2-c]pyrrolo[3,4-e]azepine] | 30 | 1000 | 90 | 90 |  |  |  |  |  |
| COc1cccc2c1[C@H]1CNC[C@@H]1CCO2 (relative stereo) [Example 272, Trans-10-methoxy-2,3,3a,4,5,10b-hexahydro-1H-[1]benzoxepino[4,5-c]pyrrole] | 20 | 200 | > 120 | 7 |  |  |  |  |  |
| Fc1ccc2c(c1)OCC[C@H]1CNC[C@H]21 (relative stereo) [Example 109, Trans-8-fluoro-2,3,3a,4,5,10b-hexahydro-1H-[1]benzoxepino[4,5-c]pyrrole] | 55 | 300 | > 120 | 40 |  |  |  |  |  |
| CN1C[C@H]2CNC(=O)c3cc(N4CCCCC4)ccc3[C@@H]2C1 (relative stereo) [Example 298, Trans-2-methyl-8-(piperidin-1-yl)-2,3,3a,4,5,10b-hexahydropyrrolo[3,4-d][2]benzazepin-6(1H)-one] |  |  |  |  | > 10000 |  | 400 | 80 | inactive |
| CN1C[C@H]2CNC(=O)c3cc(-c4ccc(C(F)(F)F)cc4)ccc3[C@@H]2C1 (relative stereo) [Example 79, Trans-2-methyl-8-(4-(trifluoromethyl)phenyl)-1,2,3,3a,4,5-hexahydrobenzo[e]pyrrolo[3,4-c]azepin-6(10bH)-one] |  |  |  |  | > 10000 |  | 30 | > 120 | inactive |
| CN1C[C@@H]2CNC(=O)c3cc(-c4ccc5c(c4)C(=O)CC5)ccc3[C@H]2C1 [Example 306, (3aS,10bS)-2-Methyl-8-(3-oxo-2,3-dihydro-1H-inden-5-yl)-2,3,3a,4,5,10b-hexahydropyrrolo[3,4-d][2]benzazepin-6(1H)-one] |  |  |  |  | > 10000 |  | 10 | 90 | inactive |
| Fc1ccc2c(c1)OCC[C@H]1CN(Cc3ccccc3)C[C@H]21 (relative stereo) [Example 107, Trans-2-benzyl-8-fluoro-2,3,3a,4,5,10b-hexahydro-1H-[1]benzoxepino[4,5-c]pyrrole] | 15 | 700 | 110 | 90 |  |  |  |  |  |
| Fc1cccc2c1[C@H]1CNC[C@@H]1CCO2 (relative stereo) [Example 287, Trans-10-fluoro-2,3,3a,4,5,10b-hexahydro-1H-[1]benzoxepino[4,5-c]pyrrole] | 40 | 300 | 95 | 50 |  |  |  |  |  |
| CC(=O)c1cccc(-c2cccc3c2OCC[C@H]2CNC[C@H]32)c1 (relative stereo) [Example 351, 1-{3-[Trans-2,3,3a,4,5,10b-hexahydro-1H-[1]benzoxepino[4,5-c]pyrrol-7-yl]phenyl}ethanone] |  |  |  |  | > 10000 |  | 90 | 90 | inactive |
| CN1C[C@H]2CNC(=O)c3cc(OCc4ccccc4)ccc3[C@@H]2C1 (relative stereo) [Example 216, Trans-8-(benzyloxy)-2-methyl-1,2,3,3a,4,5-hexahydrobenzo[c]pyrrolo[3,4-e]azepin-6(10bH)-one] |  | > 10000 | > 120 | 2 |  |  |  |  | inactive |
| CC(=O)c1cccc(-c2ccc3c(c2)C(=O)N(C)C[C@@H]2CN(C)C[C@@H]32)c1 (relative stereo) [Example 191, Trans-8-(3-acetylphenyl)-2,5-dimethyl-1,2,3,3a,4,5-hexahydrobenzo[e]pyrrolo[3,4-c]azepin-6(10bH)-one] |  |  |  |  | > 10000 |  | 40 | 110 | inactive |
| N#Cc1cccc(-c2ccc3c(c2)C(=O)NC[C@@H]2CNC[C@@H]32)c1 (relative stereo) [Example 239, 3-(Trans-6-oxo-1,2,3,3a,4,5,6,10b-octahydrobenzo[c]pyrrolo[3,4-e]azepin-8-yl)benzonitrile] |  |  |  |  | 2000 | 20 | 0.8 | > 120 |  |
| CC(C)COc1ccc2c(c1)C(=O)NC[C@@H]1CNC[C@@H]21 (relative stereo) [Example 166, Trans-8-isobutoxy-1,2,3,3a,4,5-hexahydrobenzo[e]pyrrolo[3,4-c]azepin-6(10bH)-one] |  | > 10000 | > 120 |  |  |  |  |  | inactive |
| Brc1cccc2c1OCC[C@H]1CNC[C@@H]21 (relative stereo) [Example 332, Cis-7-bromo-2,3,3a,4,5,10b-hexahydro-1H-[1]benzoxepino[4,5-c]pyrrole] | 20 | 30 | 90 | 0.9 |  |  |  |  |  |
